Results as given in patent US5079260A, “Method for treating inflammation and compounds and compositions suitable for use therein” (Nova Pharmaceutical Corporation, priority 1990, dated 1992).

Assays:
[1] = test system: Reverse Passive Artus Reaction; test: Reverse Passive Artus Reaction (I), Table 6; type: in vivo, Male CD rats; conditions: inhibition of blueing; i.p., 100 mg/kg, one hour before antigen
Excerpt: (§1) Such inflammatory agents typically include tetradecanoylphorbolacetate, arachidonic acid, xylene, capsaicin, oxazolone, carrageenan and the like. The reverse passive Arthus test offers another measure of the compound's utility in preventing an inflammatory response (Chang et al, Eur. J. Pharm. 69:155-164 (1981)). Test compounds are typically administered intraperitoneally or topically. For intraperitoneal administration, the test compound can be given in dimethyl sulfoxide or in 0.5% methylcellulose 30 minutes prior to administration of the irritant. For topical administration, the test compound can be dissolved in, for example, acetone, ethanol or dimethyl sulfoxide and applied about 15 minutes prior to application of the irritant. Results can be expressed as the percent decrease in swelling in the compound-treated animals as compared to control animals that receive only the irritant.
Reverse Passive Artus Reaction (I)
Male CD rats weighing between 200 and 250 g were used. Test compounds (compounds of Formula I where X is oxygen, R3, R4, A and B are hydrogen and Q is as indicated in Table 6) were dissolved in dimethyl sulfoxide and 200 μl of this solution (100 mg/kg) were injected intraperitoneally one hour before administration of the antigen. The animals were anesthetized inhalationally with isoflurane and then were injected through the penile vein with 1 ml of a solution of 2.5 mg of Evan's blue dye and 5.0 mg of human serum albumin in 1 ml of saline. This treatment was followed immediately by intracutaneous injections of 0.03 ml of anti-human albumin diluted to contain 3.65 mg of antibody at 3 sites along the midline back. Anesthesia was terminated and after three hours the animals were sacrificed. The skin was removed and the blue stained areas cut out. […] The tube contents were agitated and centrifuged, and the absorbance of the supernatant liquid was measured at 620 nm. The data were calculated as inhibition of blueing by test compound compared to control animals receiving only antigen and antibody.

[2] = test system: Ear Edema Caused by Arachidonic Acid; test: Inhibition of Ear Edema Caused by Arachidonic Acid (I), Table 2; type: in vivo, CF-1 Mice; conditions: i.p., 100 mg/kg; ear thickness at sixty minutes
Excerpt: as §1
Inhibition of Ear Edema Caused by Arachidonic Acid (I)
CF-1 Mice, 25-30 g body weight, six animals per group, were used. Test compounds (compounds of Formula I where X is oxygen, R3, R4, A and B are hydrogen and Q is as indicated in Table 2) were administered intraperitoneally (100 mg/kg) as follows. For intraperitoneal administration, test compound was dissolved in DMSO or 0.5% methylcellulose and 100 μl was injected 30 minutes prior to i.p. administration of 100 mg/kg of arachidonic acid. A solution of the irritant, arachidonic acid, 100 mg/ml in ethanol, was added to the surface of the ear, 5 μl added to the upper surface and 5 μl to the lower surface. After sixty minutes, the thickness of the ear was measured to 0.01 mm by a micrometer with loose drag positioned at the lateral-most edge of the mid-point of the pinna. Data were calculated as the percent inhibition by the test compound of increased ear thickness compared to control animals receiving only the irritant.

[3] = test system: Ear Edema Caused by Capsaicin; test: Inhibition of Ear Edema Caused by Capsaicin, Table 4; type: in vivo, CF-1 Mice
Excerpt: as §1
Inhibition of Ear Edema Caused by Capsaicin
CF-1 Mice, 25-30 g body weight, six animals per group, were used. […] After thirty minutes, the thickness of the ear was measured to 0.01 mm by a micrometer with loose drag positioned at the lateral-most edge of the mid-point of the pinna. Data were calculated as the inhibition by the test compound of increased ear thickness compared to control animals receiving only the irritant.

[4] = test system: Ear Edema Caused by Arachidonic Acid; test: Inhibition of Ear Edema Caused by Arachidonic Acid (I), Table 2; type: in vivo, CF-1 Mice; conditions: dose not given in Example 4, sixty minutes
[5] = test system: Ear Edema Caused by Oxazolone; test: Inhibition of Ear Edema Caused by Oxazolone (I), Table 5; type: in vivo, CF-1 Mice; conditions: i.p., 100 mg/kg, 30 min before irritant; sensitized mice; 24 h
Excerpt: as §1
Inhibition of Ear Edema Caused by Oxazolone (I)
CF-1 Mice, 25-30 g body weight, six animals per group, were used. The mice were sensitized to the irritant two weeks prior to the test by dribbling 100 μl of a 3% solution of oxazolone in acetone onto the abdominal skin of the animal. Test compounds (compounds of Formula I where X is oxygen, R3, R4, A and B are hydrogen and Q is as indicated in Table 5) were administered intraperitoneally as follows. The test compound was dissolved in DMSO or 0.5% methylcellulose and 100 μl (100 mg/kg) was injected 30 minutes prior to irritant. The irritant, 3% oxazolone in acetone, was added to the surface of the ear, 5 μl added to the upper surface and 5 μl to the lower surface. After twenty four hours, the thickness of the ear was measured to 0.01 mm by a micrometer with loose drag positioned at the lateral-most edge of the mid-point of the pinna. Data were calculated as the inhibition by the test compound of increased ear thickness compared to control animals receiving only the irritant.

[6] = test system: Ear Edema Caused by Xylene; test: Inhibition of Ear Edema Caused by Xylene (I), Table 3; type: in vivo, CF-1 Mice; conditions: 2 h
Excerpt: as §1
Inhibition of Ear Edema Caused by Xylene (I)
CF-1 Mice, 25-30 g body weight, six animals per group, were used. Test compounds (compounds of Formula I where X is oxygen, R3, R4, A and B are hydrogen and Q is as indicated in Table 3) were administered intraperitoneally (100 mg/kg) or topically as follows. For intraperitoneal administration, the test compound was dissolved in DMSO or 0.5% methylcellulose and 100 μl was injected 30 minutes prior to irritant. For topical administration, test compound was dissolved in either acetone, ethanol or dimethyl sulfoxide and 5 μl (10 μg) applied to the upper surface (1 cm^2) of the ear and an additional 5 μl (10 μg) applied to the lower surface (1 cm^2) of the ear fifteen minutes prior to application of the irritant. The irritant, xylene, was added to the surface of the ear, 20 μl added to the upper surface and 20 μl to the lower surface. After two hours, the thickness of the ear was measured to 0.01 mm by a micrometer with loose drag positioned at the lateral-most edge of the mid-point of the pinna. Data were calculated as the inhibition by the test compound of increased ear thickness compared to that of control animals receiving only the irritant.

[7] = test system: Ear Edema Caused by Tetradecanoylphorbolacetate; test: Inhibition of Ear Edema Caused by Tetradecanoylphorbolacetate (I), Table 1; type: in vivo, CF-1 Mice
Excerpt: as §1
Inhibition of Ear Edema Caused by Tetradecanoylphorbolacetate (I)
CF-1 Mice, 25-30 g body weight, six animals per group, were used. Test compounds (compounds of Formula I where X is oxygen, R3, R4, A and B are hydrogen and Q is as indicated in Table 1) were administered intraperitoneally (100 mg/kg) or topically as follows. For intraperitoneal administration, the test compound was dissolved in dimethyl sulfoxide or 0.5% methylcellulose and 100 μl was injected 30 minutes prior to irritant (100 mg/kg, i.p.). For topical administration, the test compound was dissolved in either acetone, ethanol or dimethyl sulfoxide and 5 μl (100 μg) applied to the upper surface (1 cm^2) of the ear and an additional 5 μl (100 μg) applied to the lower surface (1 cm^2) of the ear fifteen minutes prior to application of the irritant. A solution of the irritant, tetradecanoylphorbolacetate, 200 μg/ml, was added to the surface of the ear, 5 μl added to the upper surface and 5 μl to the lower surface. After three hours, the thickness of the ear was measured to 0.01 mm by a micrometer with loose drag positioned at the lateral-most edge of the mid-point of the pinna. Data were calculated as the inhibition by the test compound of increased ear thickness compared to control animals receiving only the irritant.

Molecule: CC(C)C[C@H](NC(=O)OCC1c2ccccc2-c2ccccc21)C(=O)O [L-Leucine, N-[(9H-Fluoren-9-ylmethoxy)carbonyl]-L-leucine]
- % Inhibition Intraperitoneal [1]: 48%
- % Inhibition Intraperitoneal [2]: 62%
- % Inhibition Intraperitoneal ([3]; i.p., 100 mg/kg, 30 min before irritant, ear thickness at thirty minutes): 74%
- % Inhibition, topical [4]: 41%
- % Inhibition Intraperitoneal [5]: 58%
- % Inhibition Intraperitoneal ([6]; i.p., 100 mg/kg, 30 min before irritant): 47%
- % Inhibition, topical ([6]; topical, 10 μg upper + 10 μg lower ear surface, 15 min before irritant): 66%
- % Inhibition Intraperitoneal ([7]; i.p., 100 mg/kg, 30 min before irritant, ear thickness at 3 h): 54%
- % Inhibition, topical ([7]; topical, 100 μg upper + 100 μg lower ear surface, 15 min before irritant, 3 h): 41%

Molecule: D-Pro^2 -D-Trp^7.9 -Substance P [reference compound]
- % Inhibition Intraperitoneal ([3]; Reference Standard, 100 μg/ear, thirty minutes): 34%
- % Inhibition Intraperitoneal ([6]; Reference Standard, 100 μg/ear): 44%
